For 18 molecules, IC50 results are on record in US11021493B2, “1,4-thiazine dioxide and 1,2,4-thiadiazine dioxide derivatives as beta-secretase inhibitors and methods of use” (AMGEN INC., priority 2016, dated 2021).

The target in assay [1] is T1, BACE1 (Homo sapiens (Human), UniProt P56817). In words: In vitro enzymatic BACE1 FRET assay. Format: biochemical. The note with it: read-out: BACE1 Enzyme IC50.
Target sequence in this assay (P56817 46-501): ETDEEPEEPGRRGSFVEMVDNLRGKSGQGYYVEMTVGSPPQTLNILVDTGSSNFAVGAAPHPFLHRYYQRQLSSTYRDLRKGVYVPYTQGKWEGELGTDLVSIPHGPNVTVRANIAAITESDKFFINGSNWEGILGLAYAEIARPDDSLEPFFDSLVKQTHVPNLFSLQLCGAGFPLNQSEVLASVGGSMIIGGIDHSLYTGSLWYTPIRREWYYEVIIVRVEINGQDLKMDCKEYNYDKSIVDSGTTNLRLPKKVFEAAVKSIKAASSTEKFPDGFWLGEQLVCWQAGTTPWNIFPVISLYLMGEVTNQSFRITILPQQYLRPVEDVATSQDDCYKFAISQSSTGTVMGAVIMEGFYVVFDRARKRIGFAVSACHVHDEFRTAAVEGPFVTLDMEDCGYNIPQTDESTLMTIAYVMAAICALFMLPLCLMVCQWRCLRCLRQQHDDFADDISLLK
The target of assay [2] is T1, BACE1. Briefly: In vitro BACE1 cell-based assay (Aβ40 in conditioned medium of cells stably expressing APP, HTRF). The settings on record: Aβ40 in conditioned media after 24 h incubation. A general note: TR-FRET usually uses a lanthanide donor and a delayed reading to cut background.
Target sequence in this assay (P56817 46-501, species assumed): as the sequence (P56817 46-501) above
Assay [3] deals with human recombinant BACE2 (Homo sapiens (Human), UniProt Q9Y5Z0). In words: In vitro enzymatic BACE2 FRET assay. The note with it: read-out: BACE2 Enzyme IC50. In kind it is biochemical.
Sequence of human recombinant BACE2 (Q9Y5Z0 63-518): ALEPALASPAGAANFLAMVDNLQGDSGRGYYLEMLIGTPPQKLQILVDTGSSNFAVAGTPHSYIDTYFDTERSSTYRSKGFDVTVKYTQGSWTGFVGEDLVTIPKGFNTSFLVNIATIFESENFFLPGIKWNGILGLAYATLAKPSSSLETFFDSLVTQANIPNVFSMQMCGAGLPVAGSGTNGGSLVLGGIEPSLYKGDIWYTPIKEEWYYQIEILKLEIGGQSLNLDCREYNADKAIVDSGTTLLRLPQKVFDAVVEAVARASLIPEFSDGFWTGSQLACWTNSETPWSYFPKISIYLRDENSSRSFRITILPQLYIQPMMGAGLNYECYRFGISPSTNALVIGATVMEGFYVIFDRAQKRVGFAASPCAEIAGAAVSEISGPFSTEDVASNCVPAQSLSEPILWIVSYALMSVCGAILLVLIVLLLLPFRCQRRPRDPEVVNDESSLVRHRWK
For assay [4], the target named is Cathepsin D (CatD) (Homo sapiens (Human), UniProt P07339). Briefly: In vitro enzymatic Cathepsin D (CatD) FRET assay. The note with it: read-out: Cat D Enzyme IC50. In kind it is biochemical.
Sequence of Cathepsin D (CatD) (P07339 65-412, species assumed): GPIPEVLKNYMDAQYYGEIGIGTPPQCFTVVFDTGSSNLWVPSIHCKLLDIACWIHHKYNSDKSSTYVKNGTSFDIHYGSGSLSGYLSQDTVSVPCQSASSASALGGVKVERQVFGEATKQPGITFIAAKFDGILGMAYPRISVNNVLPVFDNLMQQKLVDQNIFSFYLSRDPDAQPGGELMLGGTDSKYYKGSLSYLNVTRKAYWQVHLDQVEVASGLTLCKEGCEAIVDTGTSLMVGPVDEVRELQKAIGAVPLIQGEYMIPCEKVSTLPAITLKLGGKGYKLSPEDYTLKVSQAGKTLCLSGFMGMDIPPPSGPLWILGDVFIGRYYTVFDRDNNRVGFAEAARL

Turning to `C=CCOc1cnc(/C(F)=C/c2ccc(F)c([C@@]3(C)N=C(N)[C@@]4(CF)CC[C@@H]3S4(=O)=O)c2)cn1` [Example 125, (1R,4R,5S)-4-(5-((Z)-2-(5-(allyloxy)pyrazin-2-yl)-2-fluorovinyl)-2-fluorophenyl)-2-amino-1-(fluoromethyl)-4-methyl-8-thia-3-azabicyclo[3.2.1]oct-2-ene 8,8-dioxide], the IC50 was 48 nM in assay [1], 446 nM in assay [2], 163 nM in assay [3] and 91200 nM in assay [4].
For `C[C@]1(c2cc(/C=C(\F)c3cnc(OCC4COC4)cn3)ccc2F)N=C(N)[C@@]2(CF)CC[C@@H]1S2(=O)=O` [Example 126, (1R,4R,5S)-2-amino-4-(2-fluoro-5-((Z)-2-fluoro-2-(5-(oxetan-3-ylmethoxy)pyrazin-2-yl)vinyl)phenyl)-1-(fluoromethyl)-4-methyl-8-thia-3-azabicyclo[3.2.1]oct-2-ene 8,8-dioxide], the IC50 was determined as 138 nM in assay [1], 457 nM in assay [2], 141 nM in assay [3] and 100000 nM in assay [4].
For `CC1(C)C(N)=N[C@](C)(c2cc(/C=C(\F)c3cnc(OCc4ncco4)cn3)ccc2F)CS1(=O)=O` [Example 129, (R,Z)-5-amino-3-(2-fluoro-5-(2-fluoro-2-(5-(oxazol-2-ylmethoxy)pyrazin-2-yl)vinyl)phenyl)-3,6,6-trimethyl-3,6-dihydro-2H-1,4-thiazine 1,1-dioxide], the IC50 was 7 nM in assay [1], 5 nM in assay [2], 56 nM in assay [3] and 163000 nM in assay [4].
With `COCCOc1cnc(/C(F)=C/c2ccc(F)c([C@@]3(C)N=C(N)[C@@]4(CF)CC[C@@H]3S4(=O)=O)c2)cn1` [Example 130, (1R,4R,5S)-2-amino-4-(2-fluoro-5-((Z)-2-fluoro-2-(5-(2-methoxyethoxy)pyrazin-2-yl)vinyl)phenyl)-1-(fluoromethyl)-4-methyl-8-thia-3-azabicyclo[3.2.1]oct-2-ene 8,8-dioxide], the IC50 in assay [1] came to 33 nM; in assay [2] it was 60 nM; in assay [3], 163 nM; in assay [4], 173000 nM.
`COC[C@H](C)Oc1cnc(/C(F)=C/c2ccc(F)c([C@@]3(C)N=C(N)[C@@]4(CF)CC[C@@H]3S4(=O)=O)c2)cn1` [Example 131, (1R,4R,5S)-2-amino-4-(2-fluoro-5-((Z)-2-fluoro-2-(5-(((S)-1-methoxypropan-2-yl)oxy)pyrazin-2-yl)vinyl)phenyl)-1-(fluoromethyl)-4-methyl-8-thia-3-azabicyclo[3.2.1]oct-2-ene 8,8-dioxide]: the IC50 is 13 nM in assay [1], 97 nM in assay [2], 104 nM in assay [3] and above 400000 nM in assay [4].
Take `C[C@]1(c2cc(/C=C(\F)c3cnc(OCC4CCC4)cn3)ccc2F)N=C(N)[C@@]2(CF)CC[C@@H]1S2(=O)=O` [Example 132, (1R,4R,5S)-2-amino-4-(5-((Z)-2-(5-(cyclobutylmethoxy)pyrazin-2-yl)-2-fluorovinyl)-2-fluorophenyl)-1-(fluoromethyl)-4-methyl-8-thia-3-azabicyclo[3.2.1]oct-2-ene 8,8-dioxide]: the IC50 is 38 nM in assay [1], 1960 nM in assay [2], 217 nM in assay [3] and above 400000 nM in assay [4].
The corresponding values for `C[C@]1(c2cc(/C=C(\F)c3cnc(OCCF)cn3)ccc2F)N=C(N)[C@@]2(CF)CC[C@@H]1S2(=O)=O` [Example 133, (1R,4R,5S)-2-amino-4-(2-fluoro-5-((Z)-2-fluoro-2-(5-(2-fluoroethoxy)pyrazin-2-yl)vinyl)phenyl)-1-(fluoromethyl)-4-methyl-8-thia-3-azabicyclo[3.2.1]oct-2-ene 8,8-dioxide] are 131 nM, 339 nM, 151 nM and 428000 nM.
For the molecule `C[C@]1(c2cc(/C=C(\F)c3cnc(OCC(F)F)cn3)ccc2F)N=C(N)[C@@]2(CF)CC[C@@H]1S2(=O)=O` [Example 134, (1R,4R,5S)-2-amino-4-(5-((Z)-2-(5-(2,2-difluoroethoxy)pyrazin-2-yl)-2-fluorovinyl)-2-fluorophenyl)-1-(fluoromethyl)-4-methyl-8-thia-3-azabicyclo[3.2.1]oct-2-ene 8,8-dioxide], the IC50 in assay [1] is 101 nM; in assay [2], 318 nM; in assay [3] it was 123 nM; in assay [4], 196000 nM.
On to `CCCOc1cnc(/C(F)=C/c2ccc(F)c([C@@]3(C)N=C(N)[C@@]4(CF)CC[C@@H]3S4(=O)=O)c2)cn1` [Example 135, (1R,4R,5S)-2-amino-4-(2-fluoro-5-((Z)-2-fluoro-2-(5-propoxypyrazin-2-yl)vinyl)phenyl)-1-(fluoromethyl)-4-methyl-8-thia-3-azabicyclo[3.2.1]oct-2-ene 8,8-dioxide], for which the IC50 was 86 nM in assay [1], 866 nM in assay [2], 120 nM in assay [3] and above 400000 nM in assay [4].
The matching figures for `COC(C)COc1cnc(/C(F)=C/c2ccc(F)c([C@@]3(C)N=C(N)[C@@]4(CF)CC[C@@H]3S4(=O)=O)c2)cn1` (stereo partly drawn) [Example 136, (1R,4R,5S)-2-amino-4-(2-fluoro-5-((Z)-2-fluoro-2-(5-(2-methoxypropoxy)pyrazin-2-yl)vinyl)phenyl)-1-(fluoromethyl)-4-methyl-8-thia-3-azabicyclo[3.2.1]oct-2-ene 8,8-dioxide]: 51 nM, 218 nM, 315 nM and 78200 nM.
`CC#CCOc1cnc(/C(F)=C/c2ccc(F)c([C@@]3(C)N=C(N)[C@@]4(CF)CC[C@@H]3S4(=O)=O)c2)cn1` [Example 137, (1R,4R,5S)-2-amino-4-(5-((Z)-2-(5-(but-2-yn-1-yloxy)pyrazin-2-yl)-2-fluorovinyl)-2-fluorophenyl)-1-(fluoromethyl)-4-methyl-8-thia-3-azabicyclo[3.2.1]oct-2-ene 8,8-dioxide]: the IC50 in assay [1] stood at 1 nM; in assay [2], 4 nM; in assay [3], 44 nM; in assay [4], 65300 nM.
On to `C#CCOc1cnc(/C(F)=C/c2ccc(F)c([C@@]3(C)N=C(N)N(C)S(=O)(=O)C34CC4)c2)cn1` [Example 138, (8R)-8-(2-fluoro-5-((Z)-2-fluoro-2-(5-(2-propyn-1-yloxy)-2-pyrazinyl)ethenyl)phenyl)-5,8-dimethyl-4-thia-5,7-diazaspiro[2.5]oct-6-en-6-amine 4,4-dioxide], for which the IC50 in assay [1] is 16 nM; in assay [2] it was 78 nM; in assay [3], 622 nM; in assay [4] it was 125000 nM.
`CN1C(N)=N[C@](C)(c2cc(/C=C(\F)c3cnc(Cl)cn3)ccc2F)C2(CC2)S1(=O)=O` [Example 139, (8R)-8-(5-((Z)-2-(5-chloro-2-pyrazinyl)-2-fluoroethenyl)-2-fluorophenyl)-5,8-dimethyl-4-thia-5,7-diazaspiro[2.5]oct-6-en-6-amine 4,4-dioxide]: the half-maximal inhibitory concentration (IC50) in assay [1] was 49 nM; in assay [2], 198 nM; in assay [3], 70 nM; in assay [4], 428000 nM.
Consider `CC1(C)C(N)=N[C@](C)(c2cc(/C=C(\F)c3cnc(OCC(F)(F)C(F)F)cn3)ccc2F)CS1(=O)=O` [Example 141, (R,Z)-5-amino-3-(2-fluoro-5-(2-fluoro-2-(5-(2,2,3,3-tetrafluoropropoxy)pyrazin-2-yl)vinyl)phenyl)-3,6,6-trimethyl-3,6-dihydro-2H-1,4-thiazine 1,1-dioxide], for which the IC50 was determined as 55 nM in assay [1], 229 nM in assay [2], 330 nM in assay [3] and 96200 nM in assay [4].
Regarding `CC1(C)C(N)=N[C@](C)(c2cc(/C=C(\F)c3cnc(OCCC(F)(F)F)cn3)ccc2F)CS1(=O)=O` [Example 142, (R,Z)-5-amino-3-(2-fluoro-5-(2-fluoro-2-(5-(3,3,3-trifluoropropoxy)pyrazin-2-yl)vinyl)phenyl)-3,6,6-trimethyl-3,6-dihydro-2H-1,4-thiazine 1,1-dioxide], the half-inhibitory concentration (IC50) in assay [1] worked out at 193 nM; in assay [2], 739 nM; in assay [3], 425 nM; in assay [4] it was 90500 nM.
Regarding `CN1C(N)=N[C@](C)(c2cc(/C=C(\F)c3cnc(OCC4CC4)cn3)ccc2F)CS1(=O)=O` [Example 143, (R,Z)-3-amino-5-(5-(2-(5-(cyclopropylmethoxy)pyrazin-2-yl)-2-fluorovinyl)-2-fluorophenyl)-2,5-dimethyl-5,6-dihydro-2H-1,2,4-thiadiazine 1,1-dioxide], the IC50 in assay [1] stood at 44 nM; in assay [2] it was 380 nM; in assay [3], 222 nM; in assay [4] it was 30500 nM.
The matching figures for `CC1(C)C(N)=N[C@](C)(c2cc(/C=C(\F)c3cnc(OCC4CCCC4)cn3)ccc2F)CS1(=O)=O` [Example 144, (R,Z)-5-amino-3-(5-(2-(5-(cyclopentylmethoxy)pyrazin-2-yl)-2-fluorovinyl)-2-fluorophenyl)-3,6,6-trimethyl-3,6-dihydro-2H-1,4-thiazine 1,1-dioxide]: 30 nM, 1070 nM, 143 nM and 17000 nM.
As for `CC1(C)C(N)=N[C@](C)(c2cc(/C=C(\F)c3cnc(OCC4CCC4)cn3)ccc2F)CS1(=O)=O` [Example 145, (R,Z)-5-amino-3-(5-(2-(5-(cyclobutylmethoxy)pyrazin-2-yl)-2-fluorovinyl)-2-fluorophenyl)-3,6,6-trimethyl-3,6-dihydro-2H-1,4-thiazine 1,1-dioxide], the IC50 in assay [1] came out at 58 nM; in assay [2] it was 518 nM; in assay [3] it was 107 nM; in assay [4], 27500 nM.

For orientation: IC50 means the point on the concentration scale where inhibition reaches its midpoint.
